Measured values from patent US9687522B2, “Methods of treating a subject afflicted with an autoimmune disease using predictive biomarkers of clinical response to glatiramer acetate therapy in multiple sclerosis” (TEVA PHARMACEUTICAL INDUSTRIES, LTD., priority 2010, dated 2017).

Tests used:
[1] = test system: IL-18; experiment: Serum IL-18 by ELISA in GA-treated MS patients; type: in vivo, human
Source text: (§1) Approximately 60 cc of blood was obtained by venipuncture from each MS patient pre-treatment and at successive time points during treatment (3 months, 6 months, 9-12 months and 24 months). PBMC were purified using Ficoll-Hypaque gradients as described in the supplier's protocol (ICN Biomedicals Inc. Ohio, USA). Samples from collaborating centers were sent via overnight FedEx™ delivery at room temperature and processed immediately upon arrival.
(§2) Interleukin-18 and caspase-1 levels were detected by human ELISA kits (Sandwich ELISA, Bender Nedaystems, USA). The sensitivity of the ELISA was 9.2 and 3.3 pg/ml for IL-18 and caspase-1 respectively. TGF-β, TNF-α, IL-4, IFN-γ, IL-17 and IL-10 levels were detected by human ELISA kits from ebioscience (San Diego Calif., 92121 USA). The sensitivity of the ebioscience kits were 60 pg/ml, 4 pg/ml, 2 pg/ml, 4 pg/ml, 4 pg/ml and 2 pg/ml respectively. BDNF was detected by the Human BDNF ELISA kit from Chemicon International (catalog #CYT306). The sensitivity of the BDNF ELISA was 7.8 pg/ml. […] Duplicates should be within 20% of the mean.

[2] = test system: caspase-1; experiment: Serum caspase-1 by ELISA in GA-treated MS patients; type: in vivo, human
Source text: as §1, §2

[3] = test system: IFN-γ; experiment: Serum IFN-γ by ELISA in GA-treated MS patients; type: in vivo, human
Source text: as §1, §2

[4] = test system: IL-17; experiment: IL-17 by ELISA in ex-vivo PBMC supernatant of GA-treated MS patients; type: cell-based, human
Experimental: as §1
(§3) 2×10^5 PBMC/well were seeded in 96 well U-bottom micro titer plate in the absence of antigen (unstimulated condition) (US) or the presence of GA at 40 and 100 μg/ml (Teva Pharmaceutical Industries, Ltd., Israel), tetanus toxoid (TT 5 μg) obtained from UMASS (University of Mass, Worcester, Mass.). The latter was used as a control antigen. Supernatants were collected from cultured cells at days 1, 3 and 5 for various assays. After 5 days, 1 μCi ^3H-thymidine was added. Cells were harvested 18 hours later using TOMTEC cell harvester (TOMTEC, Hamden Conn.). Incorporated radioactivity was measured using a liquid Scintillation counter (Wallac MicroBeta Trilux, PerkinElmer, Boston, Mass.).
as §2

[5] = test system: RRMS subjects; details: cited from earlier work
[6] = test system: IL-10; experiment: IL-10 by ELISA in ex-vivo PBMC supernatant of GA-treated MS patients; type: cell-based, human
Experimental: as §1, §3, §2

[7] = test system: TGF-β; experiment: Serum TGF-β by ELISA in GA-treated MS patients; type: in vivo, human
Source text: as §1, §2

[8] = test system: IL-4/IFN-γ ratio; experiment: IL-4/IFN-γ ratio by ELISPOT in ex-vivo PBMC of GA-treated MS patients; type: cell-based, human; details: for IL-4/IFN-γ RATIO (ELISPOT): CD3/CD28 stimulated PBMC
Source text: as §1
Human IFN-γ (Th1 indicator) and IL-4 (Th2 indicator) were measured by the ELISPOT assay according to the manufacturer's protocol (BD Biosciences, San Diego, Calif., USA). Briefly, ELISPOT plates (PVDF plate, Millipore Corporation, MA, USA) were coated with 100 μl/well of 5 μg/ml capture antibody at 4° C. over night. The plates were then washed with PBS, and incubated with 200 μl/well of blocking solution (culture medium) for 2 hours. PBMC (2×10^5 cells/well for IFN-γ and 4×10^5 cells/well for IL-4 detection) and antigen (GA 40 and 100 μg/ml, TT 5 μg/ml, CD3Ab (2.5 μg/ml)/CD28 Ab (1 μg/ml)) was added and cultured overnight at 37° C. in a 5% CO2 incubator. Samples were tested in triplicate wells in response to each antigen. After overnight culture, the plates were washed twice with deionized water and three times with PBS, then incubated with 100 μl of 2.0 μg/ml biotinylated antibody for 2 hours at room temperature. The plates were then washed three times with wash buffer (0.05% Tween-20 PBS), and incubated with 100 μl of 1:100 dilution of Avidin-HRP for 1 hour at room temperature and washed three times with wash buffer. Finally 100 μl of AEC (3-amino-9-ethyl-carbazole) substrate was added and the reaction was stopped by washing plates with distilled water. Spots were counted and analyzed by CTL Analyzers LLC ELISPOT Plate Reader (Cleveland, Ohio, USA).

[9] = GA 20 mg, largest controlled study

## Glatiramer acetate [GA]
[1]; HR/NR, 3 mo
  Serum IL-18 level: 284 ± 35 pg/mL
[1]; HR/NR, 6 mo
  Serum IL-18 level: 310 ± 39 pg/mL
[1]; HR/NR, 9-12 mo
  Serum IL-18 level: 283 ± 22 pg/mL
[1]; HR/NR, 24 mo
  Serum IL-18 level: 265 ± 15 pg/mL
[1]; HR/NR, Pre-Rx
  Serum IL-18 level: 300 ± 29 pg/mL
[1]; R, 3 mo
  Serum IL-18 level: 279 ± 23 pg/mL
[1]; R, 6 mo
  Serum IL-18 level: 189 ± 26 pg/mL
[1]; R, 9-12 mo
  Serum IL-18 level: 262 ± 15 pg/mL
[1]; R, 24 mo
  Serum IL-18 level: 260 ± 12 pg/mL
[1]; R, Pre-Rx
  Serum IL-18 level: 304 ± 26 pg/mL
[1]; serum, change from baseline
  Δ IL-18 6 months, Median (Non-Responders): 2
  Δ IL-18 6 months, Median (Responders): −102
[2]; HR/NR, 3 mo
  Serum caspase-1 level: 284 ± 35 pg/mL
[2]; HR/NR, 6 mo
  Serum caspase-1 level: 302 ± 42 pg/mL
[2]; HR/NR, 9-12 mo
  Serum caspase-1 level: 255 ± 21 pg/mL
[2]; HR/NR, 24 mo
  Serum caspase-1 level: 276 ± 7 pg/mL
[2]; HR/NR, Pre-Rx
  Serum caspase-1 level: 300 ± 29 pg/mL
[2]; R, 3 mo
  Serum caspase-1 level: 279 ± 23 pg/mL
[2]; R, 6 mo
  Serum caspase-1 level: 187 ± 21 pg/mL
[2]; R, 9-12 mo
  Serum caspase-1 level: 288 ± 12 pg/mL
[2]; R, 24 mo
  Serum caspase-1 level: 282 ± 11 pg/mL
[2]; R, Pre-Rx
  Serum caspase-1 level: 325 ± 26 pg/mL
[2]; serum, change from baseline
  Δ Caspace 6 months, Median (Non-Responders): −19
  Δ Caspace 6 months, Median (Responders): −142.5
[3]; HR/NR, 3 mo
  Serum IFN-γ level: 27 ± 1.45 pg/mL
[3]; HR/NR, 6 mo
  Serum IFN-γ level: 26 ± 1.53 pg/mL
[3]; HR/NR, 9-12 mo
  Serum IFN-γ level: 52 ± 5.8 pg/mL
[3]; HR/NR, 24 mo
  Serum IFN-γ level: 45 ± 5.3 pg/mL
[3]; HR/NR, Pre-Rx
  Serum IFN-γ level: 25 ± 1.7 pg/mL
[3]; R, 3 mo
  Serum IFN-γ level: 25 ± 2.1 pg/mL
[3]; R, 6 mo
  Serum IFN-γ level: 24 ± 1.9 pg/mL
[3]; R, 9-12 mo
  Serum IFN-γ level: 48 ± 6.3 pg/mL
[3]; R, 24 mo
  Serum IFN-γ level: 45 ± 3.8 pg/mL
[3]; R, Pre-Rx
  Serum IFN-γ level: 29 ± 2.3 pg/mL
[4]; HR/NR, 3 mo
  Supernatant IL-17 level: 160 ± 25 pg/mL
[4]; HR/NR, 6 mo
  Supernatant IL-17 level: 146 ± 25 pg/mL
[4]; HR/NR, 9-12 mo
  Supernatant IL-17 level: 129 ± 7.3 pg/mL
[4]; HR/NR, 24 mo
  Supernatant IL-17 level: 179 ± 21 pg/mL
[4]; HR/NR, Pre-Rx
  Supernatant IL-17 level: 178 ± 25 pg/mL
[4]; R, 3 mo
  Supernatant IL-17 level: 184 ± 40 pg/mL
[4]; R, 6 mo
  Supernatant IL-17 level: 60 ± 35 pg/mL
[4]; R, 9-12 mo
  Supernatant IL-17 level: 134 ± 12 pg/mL
[4]; R, 24 mo
  Supernatant IL-17 level: 167 ± 18 pg/mL
[4]; R, Pre-Rx
  Supernatant IL-17 level: 176 ± 31 pg/mL
[5]; 20 mg group, over 9 months of treatment
  median cumulative number of Gd-enhancing lesions: 11 lesions
[5]; [9]
  relapse rate: 1.34
  relapse rate reduction versus placebo: 32%
[5]; daily standard dose of 20 mg
  tolerability: generally well tolerated
[6]; HR/NR, 3 mo
  Supernatant IL-10 level: 160 ± 65 pg/mL
[6]; HR/NR, 6 mo
  Supernatant IL-10 level: 153 ± 69 pg/mL
[6]; HR/NR, 9-12 mo
  Supernatant IL-10 level: 181 ± 22 pg/mL
[6]; HR/NR, 24 mo
  Supernatant IL-10 level: 200 ± 59 pg/mL
[6]; HR/NR, Pre-Rx
  Supernatant IL-10 level: 143 ± 61 pg/mL
[6]; R, 3 mo
  Supernatant IL-10 level: 200 ± 65 pg/mL
[6]; R, 6 mo
  Supernatant IL-10 level: 310 ± 64 pg/mL
[6]; R, 9-12 mo
  Supernatant IL-10 level: 249 ± 70 pg/mL
[6]; R, 24 mo
  Supernatant IL-10 level: 255 ± 45 pg/mL
[6]; R, Pre-Rx
  Supernatant IL-10 level: 170 ± 60 pg/mL
[7]; HR/NR, 3 mo
  Serum TGF-β level: 1921 ± 150 pg/mL
[7]; HR/NR, 6 mo
  Serum TGF-β level: 1723 ± 147 pg/mL
[7]; HR/NR, 9-12 mo
  Serum TGF-β level: 1727 ± 97 pg/mL
[7]; HR/NR, 24 mo
  Serum TGF-β level: 1844 ± 53 pg/mL
[7]; HR/NR, Pre-Rx
  Serum TGF-β level: 1796 ± 95 pg/mL
[7]; R, 3 mo
  Serum TGF-β level: 1908 ± 70 pg/mL
[7]; R, 6 mo
  Serum TGF-β level: 1968 ± 75 pg/mL
[7]; R, 9-12 mo
  Serum TGF-β level: 1901 ± 64 pg/mL
[7]; R, 24 mo
  Serum TGF-β level: 1983 ± 93 pg/mL
[7]; R, Pre-Rx
  Serum TGF-β level: 1774 ± 48 pg/mL
[8]; HR/NR, 3 mo
  IL-4/IFN-γ RATIO (ELISPOT): 0.08 ± 0.02
[8]; HR/NR, 6 mo
  IL-4/IFN-γ RATIO (ELISPOT): 0.06 ± 0.05
[8]; HR/NR, 9-12 mo
  IL-4/IFN-γ RATIO (ELISPOT): 0.08 ± 0.05
[8]; HR/NR, 24 mo
  IL-4/IFN-γ RATIO (ELISPOT): 0.10 ± 0.05
[8]; HR/NR, Baseline
  IL-4/IFN-γ RATIO (ELISPOT): 0.12 ± 0.05
[8]; R, 3 mo
  IL-4/IFN-γ RATIO (ELISPOT): 0.24 ± 0.04
[8]; R, 6 mo
  IL-4/IFN-γ RATIO (ELISPOT): 0.32 ± 0.07
[8]; R, 9-12 mo
  IL-4/IFN-γ RATIO (ELISPOT): 0.34 ± 0.08
[8]; R, 24 mo
  IL-4/IFN-γ RATIO (ELISPOT): 0.25 ± 0.07
[8]; R, Baseline
  IL-4/IFN-γ RATIO (ELISPOT): 0.11 ± 0.02
[8]; GA-R, during treatment versus pre-treatment
  IL-4/IFN-γ ratio in unstimulated and in anti-CD3/CD28 stimulated PBMC: significantly higher among GA-R during treatment compared to pre-treatment levels
